Paper PMC4370192, “Discovery of Specific Inhibitors for Intestinal E. coli β-Glucuronidase through In Silico Virtual Screening” (The Scientific World Journal, 2015)

Experiments:
[1] = target: T1, E. coli β-glucuronidase (eβG) (Escherichia coli, UniProt P05804); assay: In vitro βG-activity assay (pNPG hydrolysis), eβG; assay type: biochemical
T1 construct: histidine tag (N); made in house; host or cells: E. coli BL21 (DE3)
Description: (§1) Plasmid pRESTB containing βG gene and a histidine tag at the N-terminus was constructed as described. Recombinant βG (human and E. coli) was produced by isopropyl β-D-thiogalactopyranoside (IPTG) induction of BL21 (DE3) bacteria. βG was purified from bacterial supernatants by affinity chromatography on nickels Sepharose 6 Fast Flow (GE Healthcare). The column was washed by phosphate-buffered saline (PBS), with 50 mM imidazole, and βG was eluted by PBS with 250 mM imidazole. The purified βG was desalted on a Sephadex G-25 column equilibrated with PBS and stored at −80°C.
The candidate compounds were purchased from SPECS (The Netherlands). Each candidate was provided as a solid power and dissolved in 100% DMSO (Sigma-Aldrich) to 10 mM as stock. Candidates were screened for their inhibition specificity of eβG versus hβG, which were conducted at pH 7.3 or pH 5.4, in triplicate, respectively. 40 μL purified βG was treated with 10 μL compound solution at 37°C for 30 min and sequentially incubated with 50 μL of pNPG (Sigma-Aldrich) at 37°C for 30 min. Reactions were quenched with 5 μL of 2 N sodium hydroxide (Sigma-Aldrich). Each reaction consisted of 3.75 ng purified βG, 50 μM compound, and 5 mM pNPG in PBS containing 10% DMSO and 0.05% BSA (Sigma-Aldrich). βG-activities were measured by color development of pNP detected on a microplate reader at OD 405 nm. […] For IC50 determination, compounds at various concentrations (100 μM to 0.001 μM) were added.
Supplementary file 740815.f1.pdf: Fifty-nine candidate compounds were acquired from the initial virtually screening which was designed to target the bacterial loop of eβG and its active site. The docking energy scores of 59 candidate compounds measured by the DOCK program are -43 to -55 kcal/mol. (Table S1) The candidate compounds were purchased from SPECS (Zoetermeer, The Netherlands). Each candidate was rovided as a solid power and dissolved in 100% DMSO (Sigma-Aldrich, MO, USA) to 10 mM as stock. Candidates were screening for their inhibition specificity of eβG verse hβG, which were conducted at pH 7.3 or pH 5.4 in triplicate, respectively. 40 µL purified βG was treated with 10 µL compound solution at 37 °C for 30 min, and sequentially incubated with 50 µL of pNPG (Sigma-Aldrich) at 37 °C for 30 min. Reactions were quenched with 5 µL of 2 N sodium hydroxide (Sigma-Aldrich). Each reaction consisted of 3.75 ng purified βG, 50 µM compound, and 5 mM pNPG in PBS containing 10% DMSO and 0.05% BSA (Sigma-Aldrich). βG-activities were measured by color development of pNP detected on a microplate reader at OD 405 nm. […] Especially, the inhibiting ability against eβG activity was >95% in 7 candidates of eβG specific inhibitors (Table S1).
(§2) Fifty-nine candidate compounds were acquired from the initial virtually screening which was designed to target the bacterial loop of eβG and its active site. The docking energy scores of 59 candidate compounds measured by the DOCK program are -43 to -55 kcal/mol. (Table S1) The candidate compounds were purchased from SPECS (Zoetermeer, The Netherlands). Each candidate was provided as a solid power and dissolved in 100% DMSO (Sigma-Aldrich, MO, USA) to 10 mM as stock. Candidates were screening for their inhibition specificity of eβG verse hβG, which were conducted at pH 7.3 or pH 5.4 in triplicate, respectively. 40 μL purified βG was treated with 10 μL compound solution at 37 °C for 30 min, and sequentially incubated with 50 μL of pNPG (Sigma-Aldrich) at 37 °C for 30 min. Reactions were quenched with 5 μL of 2 N sodium hydroxide (Sigma-Aldrich). Each reaction consisted of 3.75 ng purified βG, 50 μM compound, and 5 mM pNPG in PBS containing 10% DMSO and 0.05% BSA (Sigma-Aldrich). βG-activities were measured by color development of pNP detected on a microplate reader at OD 405 nm. […]
percent of βG activity compared with the untreated control.
Especially, the inhibiting ability against eβG activity was >95% in 7 candidates of eβG specific inhibitors (Table S1).
Table S1. […]

[2] = target: T2, human βG (hβG) (Homo sapiens, UniProt P08236); assay: In vitro βG-activity assay (pNPG hydrolysis), hβG; assay type: biochemical
T2 construct: histidine tag (N); made in house; host or cells: E. coli BL21 (DE3)
T2 sequence (P08236 23-651): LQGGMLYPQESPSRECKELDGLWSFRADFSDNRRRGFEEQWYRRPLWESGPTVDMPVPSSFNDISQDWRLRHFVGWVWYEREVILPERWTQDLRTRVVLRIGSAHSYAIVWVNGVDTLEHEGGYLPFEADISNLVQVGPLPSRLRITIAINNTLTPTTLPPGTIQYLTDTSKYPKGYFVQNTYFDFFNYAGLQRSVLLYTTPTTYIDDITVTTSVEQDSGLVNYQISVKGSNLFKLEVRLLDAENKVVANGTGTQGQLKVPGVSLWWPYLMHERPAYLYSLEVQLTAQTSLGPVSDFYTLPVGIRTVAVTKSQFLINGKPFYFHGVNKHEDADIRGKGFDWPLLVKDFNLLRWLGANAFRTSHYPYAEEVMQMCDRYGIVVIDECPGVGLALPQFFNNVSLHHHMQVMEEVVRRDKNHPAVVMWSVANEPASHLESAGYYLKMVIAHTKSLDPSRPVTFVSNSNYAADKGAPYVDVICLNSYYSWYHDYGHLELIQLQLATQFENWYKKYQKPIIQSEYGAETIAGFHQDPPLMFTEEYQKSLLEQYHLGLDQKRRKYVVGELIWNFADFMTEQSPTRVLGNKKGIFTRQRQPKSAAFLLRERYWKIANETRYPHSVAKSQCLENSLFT
Description: as §1
The candidate compounds were purchased from SPECS (The Netherlands). Each candidate was provided as a solid power and dissolved in 100% DMSO (Sigma-Aldrich) to 10 mM as stock. Candidates were screened for their inhibition specificity of eβG versus hβG, which were conducted at pH 7.3 or pH 5.4, in triplicate, respectively. 40 μL purified βG was treated with 10 μL compound solution at 37°C for 30 min and sequentially incubated with 50 μL of pNPG (Sigma-Aldrich) at 37°C for 30 min. Reactions were quenched with 5 μL of 2 N sodium hydroxide (Sigma-Aldrich). Each reaction consisted of 3.75 ng purified βG, 50 μM compound, and 5 mM pNPG in PBS containing 10% DMSO and 0.05% BSA (Sigma-Aldrich). βG-activities were measured by color development of pNP detected on a microplate reader at OD 405 nm.
as §2, with “(Table” for “Fifty-nine candidate compounds were acquired from the initial virtually screening which was designed to target the bacterial loop of eβG and its active site. The docking energy scores of 59 candidate compounds measured by the DOCK program are -43 to -55 kcal/mol. (Table”, “rovided” for “provided”, “µL” for “μL”, “µM” for “μM”
candidate compounds were purchased from SPECS (Zoetermeer, The Netherlands). Each candidate was provided as a solid power and dissolved in 100% DMSO (Sigma-Aldrich, MO, USA) to 10 mM as stock. Candidates were screening for their inhibition specificity of eβG verse hβG, which were conducted at pH 7.3 or pH 5.4 in triplicate, respectively. 40 μL purified βG was treated with 10 μL compound solution at 37 °C for 30 min, and sequentially incubated with 50 μL of pNPG (Sigma-Aldrich) at 37 °C for 30 min. Reactions were quenched with 5 μL of 2 N sodium hydroxide (Sigma-Aldrich). Each reaction consisted of 3.75 ng purified βG, 50 μM compound, and 5 mM pNPG in PBS containing 10% DMSO and 0.05% BSA (Sigma-Aldrich). βG-activities were measured by color development of pNP detected on a microplate reader at OD 405 nm.

[3] = 50 μM compound, pH 7.3, percent of activity vs untreated control
[4] = pH 5.4, percent of activity vs untreated control
[5] = read-out: inhibition of eβG activity

T1 sequence (P05804 whole entry): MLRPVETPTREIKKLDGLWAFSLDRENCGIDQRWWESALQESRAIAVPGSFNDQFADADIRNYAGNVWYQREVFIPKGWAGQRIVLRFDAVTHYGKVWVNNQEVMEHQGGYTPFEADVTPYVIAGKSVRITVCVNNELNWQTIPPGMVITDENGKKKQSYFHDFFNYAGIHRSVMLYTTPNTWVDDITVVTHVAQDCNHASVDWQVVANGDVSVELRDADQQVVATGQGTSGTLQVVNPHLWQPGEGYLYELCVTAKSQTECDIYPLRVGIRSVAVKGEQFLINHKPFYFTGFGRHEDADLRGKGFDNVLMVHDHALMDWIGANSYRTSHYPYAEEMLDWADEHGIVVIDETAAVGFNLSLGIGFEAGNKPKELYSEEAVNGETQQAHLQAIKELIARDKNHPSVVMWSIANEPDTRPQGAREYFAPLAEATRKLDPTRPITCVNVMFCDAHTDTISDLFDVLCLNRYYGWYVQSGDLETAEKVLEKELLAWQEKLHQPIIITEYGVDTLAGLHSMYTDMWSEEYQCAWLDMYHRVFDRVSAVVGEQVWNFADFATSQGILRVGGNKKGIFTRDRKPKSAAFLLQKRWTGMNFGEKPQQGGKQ

SMILES	eβG activity (%) with 50 μM compound [1, 3] [%]	hβG activity (%) with 50 μM compound [2, 4] [%]	also measured
CCN1CCN(S(=O)(=O)c2cccc(Cl)c2)CC1 [Compound 9572]	42.66	106.78	
Cn1c(O)c(C=NC(Cc2c[nH]c3ccccc23)C(=O)O)c(=O)n(C)c1=O (centres unmarked) [Compound 5033]	9.33	116.12	
Cc1cc(NS(=O)(=O)c2ccc(NC(=O)C(C)Oc3ccc(Cl)cc3Cl)cc2)no1 (centres unmarked) [Compound 8889]	11.40	102.15	
CC(=O)Nc1ccc(S(=O)(=O)Oc2ccc([N+](=O)[O-])cc2)cc1 [Compound 7100]	20.58	112.56	
CCOC(=O)N1CCC2(CC1)OS(=O)(=O)C=C2N [Compound 0523]	31.77	109.26	
CC(C)(C)c1ccc(S(=O)(=O)/N=C2\C=CC(=O)c3ccccc32)cc1 [Compound 7145]			activity at 50 µM [1, 3]: 1%; inhibition at 10 µM [1, 5]: 55%; inhibition at 50 µM [1, 5]: > 95%; IC50 ([1]; recombinant eβG, pNPG substrate, pH 7.3): 31.6 µM; effect on hβG activity ([2]; 50 μM compound): does not hamper hβG activity; activity at 50 µM ([2]; 50 μM compound, pH 5.4, percent of activity vs untreated control): 120%
CNC(=S)Nn1cnc2c(cnn2-c2ccccc2)c1=N [Compound 2138]	19.23	107.27	
O=C(O)C1CC=CCC1C(=O)Nc1ccc(Br)c2cccnc12 (centres unmarked) [Compound 5244]	26.21	44.38	
CS(=O)(=O)CCC(C(=O)O)N1C(=O)c2ccccc2C1=O (centres unmarked) [Compound 9063]	32.48	105.45	
O=C(O)C1CC=CCC1C(=O)Nc1ccc2ccccc2c1 (centres unmarked) [Compound 4043]	32.98	81.24	
O=C1SCCC1NS(=O)(=O)c1cc(Cl)ccc1Cl (centres unmarked) [Compound 3927]	18.73	106.86	
N=C1C(c2nc3ccccc3c(=O)[nH]2)=C(O)CN1c1cccc(Cl)c1 [Compound 7036]	6.70	95.45	
COc1ccc2ccccc2c1CNCC1CCNCC1 [Compound 9927]	25.00	113.80	
Cc1cc2nc(C[n+]3cccc(C(N)=O)c3)[nH]c2cc1C [Compound 0136]	19.16	108.76	
CCN1C(=O)c2cccc3c(S(=O)(=O)N4CCN(C)CC4)ccc1c23 [Compound 1046]	45.94	106.69	
Cc1ccc2nc(CSc3nc(-c4ccncc4)ccc3C#N)[nH]c2c1 [Compound 9665]	8.97	100.83	
CN(C)CCCNS(=O)(=O)c1ccc2c3c(cccc13)C(=O)N2 [Compound 8010]	23.58	98.84	
N=c1c2sc3nc4ccccc4n3c2ncn1N [Compound 6015]	10.40	72.07	
N/C(=N\c1nc2c(c(=O)[nH]1)CCC2)Nc1ccccc1 [Compound 5905]	24.93	104.96	
O=C1C=C(Nc2cccc3cc(S(=O)(=O)O)ccc23)c2ccccc2C1=O [Compound 4277]	44.37	115.21	
